#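 96-well plates; 48 h exposure; 5 concentrations. Endpoints by linear interpolation between flanking doses. Not reached: highest tested concentration assigned. TGI: concentration producing complete growth inhibition.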
# Tests used:
# Test in all cases: DTP human tumour cell line panel, 48 h
# [1] = test system: EKVX NSCLC
# [2] = test system: MCF7 breast
# [3] = test system: LOX IMVI melanoma
# [4] = test system: MDA-MB-435
# [5] = test system: SK-MEL-2 melanoma
# [6] = test system: KM12 colon
# [7] = test system: SK-OV-3 ovarian
# [8] = test system: 786-0 renal
# [9] = test system: OVCAR-3 ovarian
# [10] = test system: MDA-MB-231 breast
# [11] = test system: HCC-2998 colon
# [12] = test system: DU-145 prostate
# [13] = test system: HOP-62 NSCLC
# [14] = test system: OVCAR-4 ovarian
# [15] = test system: SK-MEL-28 melanoma
# [16] = test system: M14 melanoma
# [17] = test system: UACC-257 melanoma
# [18] = test system: NCI-H460 lung
# [19] = test system: NCI/ADR-RES ovarian
# [20] = test system: SW-620 colon
# [21] = test system: T-47D breast
# [22] = test system: CCRF-CEM leukemia
# [23] = test system: OVCAR-8 ovarian
# [24] = test system: COLO 205 colon
# [25] = test system: SNB-75 CNS
# [26] = test system: PC-3 prostate
# [27] = test system: RXF 393 renal
# [28] = test system: SK-MEL-5 melanoma
# [29] = test system: RPMI-8226 leukemia
# [30] = test system: TK-10 renal
# [31] = test system: CAKI-1 renal
# [32] = test system: IGROV1 ovarian
# [33] = test system: MALME-3M melanoma
# [34] = test system: ACHN renal
# [35] = test system: HS 578T breast
# [36] = test system: A549 NSCLC
# [37] = test system: K-562 leukemia
# [38] = test system: HL-60(TB) leukemia
# [39] = test system: SN12C renal
# [40] = test system: UACC-62 melanoma
# [41] = test system: MDA-N
# [42] = test system: SF-295 CNS
# [43] = test system: SF-539 CNS
# [44] = test system: NCI-H23 lung
# [45] = test system: SR leukemia
# [46] = test system: HCT-15 colon
# [47] = test system: UO-31 renal
# [48] = test system: SNB-19 CNS
# [49] = test system: U251 CNS
# [50] = test system: SF-268 CNS
# [51] = test system: BT-549 breast
# [52] = test system: HCT-116 colon
# [53] = test system: MOLT-4 leukemia
# [54] = test system: HT29 colon
# [55] = test system: NCI-H226 lung
# [56] = test system: OVCAR-5 ovarian
# [57] = test system: HOP-92 NSCLC
# [58] = test system: NCI-H522 lung
smiles,measurement,setting,value
CCOP(=O)(OCC)C(C)(C)OC(=O)NC(F)(F)F,TGI,[1],> 100 µM
same,TGI,[2],> 100 µM
same,TGI,[3],> 100 µM
same,TGI,[4],> 100 µM
same,TGI,[5],> 100 µM
same,TGI,[6],> 100 µM
same,TGI,[7],> 100 µM
same,TGI,[8],> 100 µM
same,TGI,[9],> 100 µM
same,TGI,[10],> 100 µM
same,TGI,[11],> 100 µM
same,TGI,[12],> 100 µM
same,TGI,[13],> 100 µM
same,TGI,[14],> 100 µM
same,TGI,[15],> 100 µM
same,TGI,[16],> 100 µM
same,TGI,[17],> 100 µM
same,TGI,[18],> 100 µM
same,TGI,[19],> 100 µM
same,TGI,[20],> 100 µM
same,TGI,[21],> 100 µM
same,TGI,[22],> 100 µM
same,TGI,[23],> 100 µM
same,TGI,[24],> 100 µM
same,TGI,[25],> 100 µM
same,TGI,[26],> 100 µM
same,TGI,[27],> 100 µM
same,TGI,[28],> 100 µM
same,TGI,[29],> 100 µM
same,TGI,[30],> 100 µM
same,TGI,[31],> 100 µM
same,TGI,[32],> 100 µM
same,TGI,[33],> 100 µM
same,TGI,[34],> 100 µM
same,TGI,[35],> 100 µM
same,TGI,[36],> 100 µM
same,TGI,[37],> 100 µM
same,TGI,[38],> 100 µM
same,TGI,[39],> 100 µM
same,TGI,[40],> 100 µM
same,TGI,[41],> 100 µM
same,TGI,[42],> 100 µM
same,TGI,[43],> 100 µM
same,TGI,[44],> 100 µM
same,TGI,[45],> 100 µM
same,TGI,[46],> 100 µM
same,TGI,[47],> 100 µM
same,TGI,[48],> 100 µM
same,TGI,[49],> 100 µM
same,TGI,[50],> 100 µM
same,TGI,[51],> 100 µM
same,TGI,[52],> 100 µM
same,TGI,[53],> 100 µM
same,TGI,[54],> 100 µM
same,TGI,[55],99.6 µM
same,TGI,[56],> 100 µM
CCOC(=O)CC1C(O)C(=O)N(C)C1c1ccccc1 (stereo not drawn),TGI,[1],> 100 µM
same,TGI,[2],> 100 µM
same,TGI,[3],> 100 µM
same,TGI,[4],> 100 µM
same,TGI,[5],> 100 µM
same,TGI,[6],> 100 µM
same,TGI,[7],> 100 µM
same,TGI,[8],> 100 µM
same,TGI,[9],> 100 µM
same,TGI,[10],> 100 µM
same,TGI,[11],> 100 µM
same,TGI,[12],> 100 µM
same,TGI,[13],> 100 µM
same,TGI,[14],> 100 µM
same,TGI,[15],> 100 µM
same,TGI,[16],> 100 µM
same,TGI,[17],> 100 µM
same,TGI,[19],> 100 µM
same,TGI,[20],> 100 µM
same,TGI,[21],> 100 µM
same,TGI,[22],> 100 µM
same,TGI,[23],> 100 µM
same,TGI,[24],> 100 µM
same,TGI,[25],> 100 µM
same,TGI,[57],> 100 µM
same,TGI,[26],> 100 µM
same,TGI,[27],> 100 µM
same,TGI,[28],> 100 µM
same,TGI,[29],> 100 µM
same,TGI,[30],> 100 µM
same,TGI,[31],> 100 µM
same,TGI,[32],> 100 µM
same,TGI,[33],> 100 µM
same,TGI,[34],> 100 µM
same,TGI,[35],> 100 µM
same,TGI,[36],> 100 µM
same,TGI,[37],> 100 µM
same,TGI,[38],> 100 µM
same,TGI,[39],> 100 µM
same,TGI,[40],> 100 µM
same,TGI,[41],> 100 µM
same,TGI,[42],> 100 µM
same,TGI,[43],> 100 µM
same,TGI,[44],> 100 µM
same,TGI,[45],> 100 µM
same,TGI,[46],> 100 µM
same,TGI,[47],> 100 µM
same,TGI,[48],> 100 µM
same,TGI,[49],> 100 µM
same,TGI,[50],> 100 µM
same,TGI,[51],> 100 µM
same,TGI,[52],> 100 µM
same,TGI,[53],> 100 µM
same,TGI,[54],> 100 µM
same,TGI,[55],> 100 µM
same,TGI,[58],> 100 µM
same,TGI,[56],> 100 µM

# Reference: PubChem BioAssay (NCI)
